{"source": "patent US10709758B2", "about": "(priority 2015, dated 2020)", "key": {"TcdB [1]": {"system": "TcdB"}, "TcdB1": {"biological_target": "TcdB1 (Clostridioides difficile, UniProt P18177)", "sequence (P18177 2-2366 limits assumed)": "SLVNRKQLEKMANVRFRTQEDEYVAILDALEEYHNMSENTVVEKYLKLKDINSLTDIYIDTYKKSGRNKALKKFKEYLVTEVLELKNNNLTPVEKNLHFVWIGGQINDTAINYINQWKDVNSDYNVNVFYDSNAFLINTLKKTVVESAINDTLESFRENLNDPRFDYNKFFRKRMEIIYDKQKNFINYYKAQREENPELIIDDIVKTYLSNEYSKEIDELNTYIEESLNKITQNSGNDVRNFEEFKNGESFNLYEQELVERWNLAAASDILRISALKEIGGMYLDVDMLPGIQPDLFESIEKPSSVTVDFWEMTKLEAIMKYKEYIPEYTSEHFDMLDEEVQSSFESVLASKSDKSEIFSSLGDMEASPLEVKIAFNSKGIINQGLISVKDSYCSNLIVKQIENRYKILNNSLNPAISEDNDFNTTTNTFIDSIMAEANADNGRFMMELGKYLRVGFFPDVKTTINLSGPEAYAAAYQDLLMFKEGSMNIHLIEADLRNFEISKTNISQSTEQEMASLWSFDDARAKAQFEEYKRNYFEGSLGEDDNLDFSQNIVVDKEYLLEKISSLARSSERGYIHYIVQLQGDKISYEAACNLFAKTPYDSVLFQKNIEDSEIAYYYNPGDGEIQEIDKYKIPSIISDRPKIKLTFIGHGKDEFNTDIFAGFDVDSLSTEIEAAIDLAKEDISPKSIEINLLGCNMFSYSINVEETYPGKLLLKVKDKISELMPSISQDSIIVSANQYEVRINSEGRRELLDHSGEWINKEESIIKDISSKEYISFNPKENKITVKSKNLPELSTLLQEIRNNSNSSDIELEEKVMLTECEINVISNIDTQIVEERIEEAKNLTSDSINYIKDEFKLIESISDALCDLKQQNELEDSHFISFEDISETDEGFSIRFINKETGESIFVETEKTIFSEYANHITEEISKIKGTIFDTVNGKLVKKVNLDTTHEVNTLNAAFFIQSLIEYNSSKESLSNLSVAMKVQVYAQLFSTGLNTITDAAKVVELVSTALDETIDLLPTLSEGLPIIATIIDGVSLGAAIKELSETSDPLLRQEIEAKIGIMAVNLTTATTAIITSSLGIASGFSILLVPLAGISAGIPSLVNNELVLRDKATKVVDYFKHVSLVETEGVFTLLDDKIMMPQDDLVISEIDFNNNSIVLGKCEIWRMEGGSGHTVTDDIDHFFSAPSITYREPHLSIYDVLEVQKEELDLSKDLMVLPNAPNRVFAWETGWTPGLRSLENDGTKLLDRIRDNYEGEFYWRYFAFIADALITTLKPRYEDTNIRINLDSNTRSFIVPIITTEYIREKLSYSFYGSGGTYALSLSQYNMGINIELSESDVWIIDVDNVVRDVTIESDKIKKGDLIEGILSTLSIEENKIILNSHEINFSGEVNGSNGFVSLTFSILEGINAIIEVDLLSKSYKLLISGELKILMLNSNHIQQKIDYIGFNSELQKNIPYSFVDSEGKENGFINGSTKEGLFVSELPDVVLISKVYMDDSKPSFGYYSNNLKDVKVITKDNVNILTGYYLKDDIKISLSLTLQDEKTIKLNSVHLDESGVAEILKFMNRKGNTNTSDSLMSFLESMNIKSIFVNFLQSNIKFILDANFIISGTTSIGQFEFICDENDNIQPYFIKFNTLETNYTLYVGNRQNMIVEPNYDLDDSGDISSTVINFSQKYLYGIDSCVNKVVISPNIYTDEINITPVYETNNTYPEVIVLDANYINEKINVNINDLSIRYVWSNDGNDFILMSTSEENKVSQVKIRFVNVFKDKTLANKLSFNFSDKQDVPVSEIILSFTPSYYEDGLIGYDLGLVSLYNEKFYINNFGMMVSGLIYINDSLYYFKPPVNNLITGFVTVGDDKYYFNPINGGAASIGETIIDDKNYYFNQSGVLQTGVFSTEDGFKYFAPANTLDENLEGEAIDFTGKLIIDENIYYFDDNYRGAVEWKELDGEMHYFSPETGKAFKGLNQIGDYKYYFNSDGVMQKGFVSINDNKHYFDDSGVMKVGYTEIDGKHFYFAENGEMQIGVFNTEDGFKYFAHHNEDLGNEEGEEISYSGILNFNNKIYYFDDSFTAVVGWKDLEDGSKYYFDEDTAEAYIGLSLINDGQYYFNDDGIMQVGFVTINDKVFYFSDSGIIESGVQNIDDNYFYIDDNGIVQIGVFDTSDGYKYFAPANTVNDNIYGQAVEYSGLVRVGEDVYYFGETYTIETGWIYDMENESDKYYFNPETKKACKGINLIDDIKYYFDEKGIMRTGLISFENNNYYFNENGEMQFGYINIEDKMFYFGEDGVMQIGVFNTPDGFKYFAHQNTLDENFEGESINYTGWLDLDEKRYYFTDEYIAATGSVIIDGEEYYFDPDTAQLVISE"}, "CHO-K1 cells": {"system": "CHO-K1 cells", "assay_type": "cell-based"}, "TcdB [2]": {"biological_target": "TcdB (Clostridioides difficile, UniProt P18177)", "sequence (P18177 whole entry, looked up)": "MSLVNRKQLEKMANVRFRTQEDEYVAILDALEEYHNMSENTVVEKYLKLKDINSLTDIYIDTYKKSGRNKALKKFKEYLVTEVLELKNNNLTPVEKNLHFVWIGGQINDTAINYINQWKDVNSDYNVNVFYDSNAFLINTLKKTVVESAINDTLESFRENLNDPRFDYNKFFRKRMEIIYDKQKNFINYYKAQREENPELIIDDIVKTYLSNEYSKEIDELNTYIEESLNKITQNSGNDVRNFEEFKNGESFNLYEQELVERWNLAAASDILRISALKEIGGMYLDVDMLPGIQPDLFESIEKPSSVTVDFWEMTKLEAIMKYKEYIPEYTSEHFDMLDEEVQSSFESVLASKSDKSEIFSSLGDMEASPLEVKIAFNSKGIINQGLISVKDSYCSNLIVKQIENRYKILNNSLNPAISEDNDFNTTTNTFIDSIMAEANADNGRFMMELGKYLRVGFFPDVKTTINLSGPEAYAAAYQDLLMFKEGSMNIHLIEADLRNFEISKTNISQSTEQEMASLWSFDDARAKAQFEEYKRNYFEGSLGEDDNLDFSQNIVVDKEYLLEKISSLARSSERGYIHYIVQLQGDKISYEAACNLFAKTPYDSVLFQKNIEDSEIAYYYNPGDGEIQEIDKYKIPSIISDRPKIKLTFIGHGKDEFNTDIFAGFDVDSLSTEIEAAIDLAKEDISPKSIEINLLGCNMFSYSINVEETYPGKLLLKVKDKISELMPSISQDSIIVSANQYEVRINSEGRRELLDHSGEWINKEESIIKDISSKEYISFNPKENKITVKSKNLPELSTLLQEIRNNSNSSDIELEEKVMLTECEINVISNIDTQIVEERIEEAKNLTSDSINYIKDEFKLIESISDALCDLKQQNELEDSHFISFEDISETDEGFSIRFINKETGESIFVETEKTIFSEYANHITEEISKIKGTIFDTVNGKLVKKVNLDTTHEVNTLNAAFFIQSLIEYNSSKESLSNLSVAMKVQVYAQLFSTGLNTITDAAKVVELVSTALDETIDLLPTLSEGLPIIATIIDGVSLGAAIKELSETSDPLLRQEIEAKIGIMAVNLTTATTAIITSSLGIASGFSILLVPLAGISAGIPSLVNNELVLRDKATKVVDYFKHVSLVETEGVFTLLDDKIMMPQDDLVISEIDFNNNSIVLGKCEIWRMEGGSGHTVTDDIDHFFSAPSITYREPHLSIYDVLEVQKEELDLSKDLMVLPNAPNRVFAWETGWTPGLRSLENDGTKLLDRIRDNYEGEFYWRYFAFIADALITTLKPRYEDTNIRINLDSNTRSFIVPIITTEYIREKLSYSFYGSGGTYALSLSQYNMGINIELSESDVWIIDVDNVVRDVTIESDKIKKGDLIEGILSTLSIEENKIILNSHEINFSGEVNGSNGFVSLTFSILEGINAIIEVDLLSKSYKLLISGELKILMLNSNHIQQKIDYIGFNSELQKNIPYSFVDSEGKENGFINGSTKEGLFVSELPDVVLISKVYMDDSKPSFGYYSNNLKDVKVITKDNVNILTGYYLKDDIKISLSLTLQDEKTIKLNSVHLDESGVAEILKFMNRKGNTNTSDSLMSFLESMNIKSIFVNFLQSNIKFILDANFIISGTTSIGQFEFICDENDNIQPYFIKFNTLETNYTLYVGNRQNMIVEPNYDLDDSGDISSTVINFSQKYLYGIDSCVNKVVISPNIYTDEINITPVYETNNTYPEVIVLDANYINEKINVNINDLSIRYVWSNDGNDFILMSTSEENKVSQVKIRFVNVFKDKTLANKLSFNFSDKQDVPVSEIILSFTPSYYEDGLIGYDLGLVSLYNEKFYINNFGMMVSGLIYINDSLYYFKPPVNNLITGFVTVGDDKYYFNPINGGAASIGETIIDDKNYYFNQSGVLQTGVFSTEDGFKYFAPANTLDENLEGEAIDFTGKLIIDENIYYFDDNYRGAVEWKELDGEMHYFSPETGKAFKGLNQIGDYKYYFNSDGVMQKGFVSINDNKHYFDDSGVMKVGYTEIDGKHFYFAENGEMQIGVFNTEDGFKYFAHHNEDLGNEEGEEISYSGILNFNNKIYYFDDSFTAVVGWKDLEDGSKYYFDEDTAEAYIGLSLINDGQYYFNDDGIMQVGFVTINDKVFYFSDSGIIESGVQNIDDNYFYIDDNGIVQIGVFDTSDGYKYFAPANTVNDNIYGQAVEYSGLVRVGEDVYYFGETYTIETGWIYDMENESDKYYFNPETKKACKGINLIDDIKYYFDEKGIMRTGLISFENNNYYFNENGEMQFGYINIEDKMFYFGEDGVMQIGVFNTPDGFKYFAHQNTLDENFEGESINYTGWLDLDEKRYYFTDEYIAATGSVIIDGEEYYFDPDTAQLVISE", "details": "cited from earlier work"}}, "note": "Residues, ends and D or L forms follow the SMILES beside them."}
{"compound": "DKFSNSNKDKISFGNVTFI [Scramble 9]", "values": [{"measurement": "Anti-TcdB activity of scrambled PepB2 peptides", "setting": "TcdB [1]", "value": "found to have inhibitory activity"}]}
{"compound": "KPPIKNLITGFTTIGDDKYYF [Peptide 9]", "values": [{"measurement": "inhibitory activity against TcdB2 (percent of viable cells)", "setting": "TcdB2", "value": "weaker inhibitory activity"}, {"measurement": "inhibitory activity against TcdB1 (percent of viable cells)", "setting": "TcdB1", "value": "weaker inhibitory activity"}]}
{"compound": "CC[C@H](C)[C@H](NC(=O)[C@H](CCCCN)NC(=O)[C@H](CC(=O)O)NC(=O)[C@H](CO)NC(=O)[C@@H](NC(=O)[C@@H](NC(=O)[C@H](CC(N)=O)NC(=O)CNC(=O)[C@H](CCCCN)NC(=O)[C@H](Cc1ccccc1)NC(=O)[C@@H](NC(=O)[C@@H](N)CC(N)=O)C(C)C)[C@@H](C)O)[C@@H](C)CC)C(=O)N[C@@H](CO)C(=O)N[C@@H](Cc1ccccc1)C(=O)N[C@@H](CC(N)=O)C(=O)N[C@@H](Cc1ccccc1)C(=O)N[C@@H](CO)C(=O)N[C@@H](CC(=O)O)C(=O)N[C@@H](CCCCN)C(=O)O", "note": "[PepB2]", "values": [{"measurement": "impact on TcdB cytotoxicity, PepB2 alone at 25 μM", "setting": "TcdB [1]", "value": "minimal impact"}, {"measurement": "inhibition of TcdB cytotoxicity, PepB2 combined with methyl cholate", "setting": "TcdB [1]", "value": "strong inhibition"}, {"measurement": "increase of the 50% toxic concentration (TC50) of TcdB2", "setting": "TcdB2", "value": 200, "unit": "fold"}, {"measurement": "protection from cytotoxicity of TcdB2 over a range of toxin concentrations", "setting": "TcdB2", "value": "protects CHO-K1 cells"}]}
{"compound": "CC(C)[C@H](NC(=O)[C@H](CCCCN)NC(=O)[C@H](CCCNC(=N)N)NC(=O)[C@H](CCCCN)NC(=O)[C@H](CCCCN)NC(=O)[C@H](CCCCN)NC(=O)[C@@H]1CCCN1C(=O)[C@H](CCC(N)=O)NC(=O)[C@H](CO)NC(=O)[C@H](Cc1c[nH]c2ccccc12)NC(=O)[C@H](CCC(=O)O)NC(=O)[C@@H](NC(=O)[C@H](Cc1c[nH]c2ccccc12)NC(=O)[C@H](Cc1c[nH]c2ccccc12)NC(=O)[C@@H](NC(=O)[C@H](CCC(=O)O)NC(=O)[C@H](Cc1c[nH]c2ccccc12)NC(=O)[C@H](Cc1c[nH]c2ccccc12)NC(=O)[C@@H](NC(=O)[C@H](CCC(=O)O)NC(=O)[C@@H](N)CCCCN)[C@@H](C)O)[C@@H](C)O)[C@@H](C)O)C(=O)O", "note": "[Pep-1, reference compound] (H-KETWWETWWTEWSQPKKKRKV-OH)", "values": [{"measurement": "effect of known CPPs on the cytotoxicity of TcdB", "setting": "TcdB [1]", "value": "did not appear to alter TcdB cytotoxicity"}]}
{"compound": "NVFKSNTISDKISFNFSDK [PepB2-G5S]", "values": [{"measurement": "cell penetrating activities of mutant peptides", "setting": "CHO-K1 cells", "value": "Cell penetrating activities also remained"}, {"measurement": "dextran delivery compared with PepB2", "setting": "CHO-K1 cells", "value": "this is not the case for dextran delivery"}, {"measurement": "transport of dsRNA into cells compared with PepB2", "setting": "CHO-K1 cells", "value": "more efficiently transports dsRNA into cells than PepB2"}]}
{"compound": "NVFKGNTLANKLSFNFSDK [PepB1-DK5-6GN]", "values": [{"measurement": "cell penetrating activities of mutant peptides", "setting": "CHO-K1 cells", "value": "cell penetrating activities were gained"}]}
{"compound": "methyl cholate [reference compound]", "values": [{"measurement": "impact on TcdB cytotoxicity, methyl cholate alone", "setting": "TcdB [1]", "value": "minimal impact"}, {"measurement": "effect on the thermal stability of TcdB", "setting": "TcdB [2]", "value": "increase the thermal stability of TcdB"}]}
{"compound": "FKDNNSIIFDVKGTNFSSK [Scramble 8]", "values": [{"measurement": "Anti-TcdB activity of scrambled PepB2 peptides", "setting": "TcdB [1]", "value": "found to have inhibitory activity"}]}
{"compound": "SNKNFSGIVFTNFDIDKSK [Scramble 12]", "values": [{"measurement": "Anti-TcdB activity of scrambled PepB2 peptides", "setting": "TcdB [1]", "value": "found to have inhibitory activity"}]}
{"compound": "CC[C@H](C)[C@H](NC(=O)[C@H](CCCCN)NC(=O)[C@H](CCCCN)NC(=O)[C@H](C)NC(=O)[C@H](CC(C)C)NC(=O)[C@H](C)NC(=O)[C@H](C)NC(=O)[C@H](CC(C)C)NC(=O)[C@H](C)NC(=O)[C@H](CCCCN)NC(=O)[C@H](CC(C)C)NC(=O)[C@H](CC(N)=O)NC(=O)[C@@H](NC(=O)[C@H](CCCCN)NC(=O)CNC(=O)[C@H](CC(C)C)NC(=O)[C@H](CC(C)C)NC(=O)[C@H](Cc1ccc(O)cc1)NC(=O)CNC(=O)[C@H](C)N)[C@@H](C)CC)C(=O)N[C@@H](CC(C)C)C(=O)O", "note": "[transportan 10, reference compound]", "values": [{"measurement": "effect of known CPPs on the cytotoxicity of TcdB", "setting": "TcdB [1]", "value": "did not appear to alter TcdB cytotoxicity"}]}
{"compound": "N=C(N)NCCC[C@H](NC(=O)CN)C(=O)N[C@@H](CCCCN)C(=O)N[C@@H](CCCCN)C(=O)N[C@@H](CCCNC(=N)N)C(=O)N[C@@H](CCCNC(=N)N)C(=O)N[C@@H](CCC(N)=O)C(=O)N[C@@H](CCCNC(=N)N)C(=O)N[C@@H](CCCNC(=N)N)C(=O)N[C@@H](CCCNC(=N)N)C(=O)N1CCC[C@H]1C(=O)N1CCC[C@H]1C(=O)N[C@@H](CCC(N)=O)C(=O)O", "note": "[TAT, reference compound]", "values": [{"measurement": "effect of known CPPs on the cytotoxicity of TcdB", "setting": "TcdB [1]", "value": "did not appear to alter TcdB cytotoxicity"}]}
{"compound": "CC(C)C[C@H](NC(=O)[C@H](CCCCN)NC(=O)[C@H](CC(N)=O)NC(=O)[C@H](C)NC(=O)[C@H](CC(C)C)NC(=O)[C@@H](NC(=O)[C@H](CCCCN)NC(=O)[C@H](CC(=O)O)NC(=O)[C@H](CCCCN)NC(=O)[C@H](Cc1ccccc1)NC(=O)[C@@H](NC(=O)[C@@H](N)CC(N)=O)C(C)C)[C@@H](C)O)C(=O)N[C@@H](CO)C(=O)N[C@@H](Cc1ccccc1)C(=O)N[C@@H](CC(N)=O)C(=O)N[C@@H](Cc1ccccc1)C(=O)N[C@@H](CO)C(=O)N[C@@H](CC(=O)O)C(=O)N[C@@H](CCCCN)C(=O)O", "note": "[PepB1] (H-NVFKDKTLANKLSFNFSDK-OH)", "values": [{"measurement": "protection from cytotoxicity of TcdB2 over a range of toxin concentrations", "setting": "TcdB2", "value": "did not inhibit the cytotoxicity"}, {"measurement": "protection from cytotoxicity of TcdB1 over a range of toxin concentrations", "setting": "TcdB1", "value": "did not inhibit the cytotoxicity"}]}
{"compound": "NVFKGKTISDKISFNFSDK [PepB2-N6K]", "values": [{"measurement": "cell penetrating activities of mutant peptides", "setting": "CHO-K1 cells", "value": "cell penetrating activities were reduced"}]}
{"compound": "SFNKMSIDFKDIKKLSLGYIMS [TcdA 1774-1795]", "values": [{"measurement": "TcdB inhibitory activity?", "setting": "TcdB [1]", "value": "YES"}, {"measurement": "dose dependence of inhibition of TcdB", "setting": "TcdB [1]", "value": "Dose-dependent inhibition"}, {"measurement": "inhibitory activity against TcdB toxin", "setting": "TcdB [1]", "value": "found to have inhibitory activity against TcdB toxin"}]}
